Reference: patent publication US20120190613A1, “ECHINOCANDIN DERIVATIVES” (priority 2009, published 2012)
Converted amounts (≈) assume the structure as drawn. Marks after values point to notes of the source that are not given here. Starred links: 1 amine or outer side, 2 acyl side, 3 side chain; linkers in the order of their positions; H or OH if unused. Positions of bridges follow the written chain, without caps; N, C: chain ends. Non-standard residues stand in square brackets, D forms with d. Residues, ends and D or L forms follow the SMILES beside them. *: point of attachment. pTerphenylCO(4''-OnC5H11) = CCCCCOc1ccc(-c2ccc(-c3ccc(C(=O)*)cc3)cc2)cc1; Orn(4R-OH,5R-OH) = O=C([C@H](C[C@@H](O)[C@@H](O)N[*:3])N[*:1])[*:2]; hTyr(3S-OH,4S-OH) = N[C@H](C(=O)O)[C@H](O)[C@@H](O)c1ccc(O)cc1; Pro(3S-OH,4S-Me) = C[C@H]1CN[C@H](C(=O)O)[C@H]1O; Hyp = O=C(O)[C@@H]1C[C@@H](O)CN1

Columns and labels:
[1] = test system: C. albicans 104 ATCC 90028; experiment: MIC by broth microdilution against C. albicans; type: cell-based
Protocol: (§1) MIC values (μg/mL) of echinocandin class compounds of the invention against various Candida and Aspergillus species were obtained as follows. Test organisms were obtained from the American Type Culture Collection (Manassas, Va.). The isolates were maintained at −80 ° C., then thawed and sub-cultured one day prior to testing (seven days for Aspergillus strains).
(§2) The mouse serum was heat-inactivated for 30 minutes at 56° C., and filtered through a 0.2 μm low protein binding filter unit prior to use.
(§3) MIC values were determined using broth microdilution. The wells of the daughter plates ultimately contained 180 μL of RPMI-1640 medium with and without mouse serum, 10 μL of drug solution, and 10 μL of yeast or fungal inoculum.
(§4) Prior to susceptibility testing, fungal isolates were removed from frozen storage, thawed at room temperature, and subcultured to Potato Dextrose Agar. The Candida strains were incubated overnight at 35° C. and the Aspergillus strains for 7 days at 25° C. Yeast colonies were inoculated into sterile saline and adjusted to the turbidity of a 0.5 McFarland standard. Inoculums from Aspergillus strains were prepared by washing the surface of an agar slant with 1 mL of sterile saline containing 0.05% of Tween 20. The resulting colloidial suspensions were adjusted to an optical density of 0.09 to 0.11 at λ 625 nm.
(§5) Both the yeast and filamentous fungus suspensions were further diluted 1:100 in RPMI-1640 medium and dispensed into sterile reservoirs and used to inoculate the daughter plates. 10 μL of standardized inoculum was delivered into each well. This yielded a final cell concentration in the daughter plates of approximately 2.5×10^3 colony-forming units/mL. Plates were incubated at 35° C. for approximately 48 hr.
(§6) Following incubation, microplates were viewed from the bottom using a plate viewer.

[2] = test system: C. parapsilosis 630 ATCC 90018; experiment: MIC by broth microdilution against C. parapsilosis; type: cell-based
Protocol: as §1, §2, §3, §4, §5, §6

[3] = test system: A. flavus 626 ATCC 64025; experiment: MIC by broth microdilution against A. flavus; type: cell-based; details: growth reduction of 50%
Protocol: as §1, §2, §3, §4, §5, §6

[4] = test system: C. albicans R303; experiment: Mouse candidiasis infection model, C. albicans density in kidneys; type: in vivo, female CD-1 mice; details: for Difference from 24-hr control / Mean log10 CFU/kidneys (±SD) / Mean log10 CFU/kidneys (±SEM): kidneys at 24 hr; for Reduction of yeast density in kidneys: 5 mg/kg dose, versus 24-hr infected control
Protocol: The objective of these studies was to evaluate the efficacy of test compounds in the mouse candidiasis infection model.
The strain, C. albicans R303 was transferred from frozen storage onto Sabauroud dextrose agar (SDA) plates and grown for ˜24 hr at 35° C. The inoculum was prepared by transferring colonies from the plate to phosphate buffered saline (PBS) and the concentration adjusted to 10^6 CFU/mL with the aid of a spectrophotometer. The stock was diluted 1:9 to prepare the inoculum. Prior to each run the concentration was verified using the dilution plate count method.
The female CD-1 mice used in this study were obtained from Charles River Laboratories, Portage, MI. The animals were approximately seven-weeks-old at the start of the study and weighed about 16-26 g.
In one approach, mice were made neutropenic with IP injections of cyclophosphamide (150 mg/kg in 10 mL/kg) at 4 and 1 day before inoculation. Each animal was inoculated with the appropriate concentration by injecting 0.1 mL of inoculum into a tail vein. The test compounds were administered IP at 2 hr after infection.
The kidneys were collected from four mice in control group 1 (untreated) at 2 hr after infection, and from the remaining mice in the study at 24 hr after infection. Kidneys were removed aseptically from each mouse and were combined in a sterile tube. An aliquot (2 mL) of sterile PBS was added to each tube and the contents homogenized with a tissue homogenizer (Polytron 3100). Serial dilutions of the tissue homogenates were conducted and 0.1 mL aliquots were spread on SDA plates and the plates incubated at 35° C. overnight. The CFU/kidneys were determined from colony counts. Data were analyzed using one-way ANOVA with the Tukey-Kramer Multiple Comparisons Test (GraphPad InStat version 3.06, GraphPad Software, San Diego, Calif.).
Treatments were administered at 2 hr after infection with 2.1×10^5 CFU/mL of the organism. Data are the means of four mice.
Treatments were administered at 2 hr after infection with 6.4×10^5 CFU/mL of the organism. Data are the means of four mice.
Treatments were administered at 2 hr after infection with 3.8×10^5 CFU/mL of the organism. Data are the means of four mice.
Treatments were administered at 2 hr after infection with 3.8×10^5 CFU/rnL of the organism. Data are the means of four mice.

[5] = First run, 1 mg/kg IP 2 hr after infection
[6] = First run, 1 mg/kg IP 2 hr after infection, neutropenic mice
[7] = First run, 5 mg/kg IP 2 hr after infection
[8] = First run, 5 mg/kg IP 2 hr after infection, neutropenic mice
[9] = Second run, 1 mg/kg IP 2 hr after infection
[10] = Third run, 0.5 mg/kg IP 2 hr after infection
[11] = Third run, 1.5 mg/kg IP 2 hr after infection
[12] = Third run, 4.5 mg/kg IP 2 hr after infection

Compound | MIC ([1]; 0% mouse serum, 48 hr) | MIC ([1]; 50% mouse serum, 48 hr) | MIC ([2]; 0% mouse serum, 48 hr) | MIC ([2]; 50% mouse serum, 48 hr) | MIC ([3]; 0% mouse serum, 48 hr) | MIC ([3]; 50% mouse serum, 48 hr) | Difference from 24-hr control [4, 5] | Mean log10 CFU/kidneys (±SD) [4, 6] | Difference from 24-hr control [4, 7] | Mean log10 CFU/kidneys (±SD) [4, 8] | Reduction of yeast density in kidneys ([4]; First run) | also measured
CCC(C)CC(C)CCCCCCCCC(=O)NC1CC(O)C(NCCNC(=O)OCCOC)NC(=O)C2C(O)CCN2C(=O)C(C(O)CCN)NC(=O)C(C(O)C(O)c2ccc(O)cc2)NC(=O)C2CC(O)CN2C(=O)C(C(C)O)NC1=O (centres unmarked) [Compound 1] | 0.5 µg/mL (≈ 0.418 µM) | 1 µg/mL (≈ 0.837 µM) | 2 µg/mL (≈ 1.67 µM) | >16 µg/mL | 0.125 µg/mL (≈ 0.105 µM) | 0.5 µg/mL (≈ 0.418 µM) | −0.13 ns log10 CFU/kidneys | 4.65 ± 0.26 log10 CFU/kidneys | −2.87*** log10 CFU/kidneys | 1.90 ± 0.21 log10 CFU/kidneys | 2.87 logs | –
CCCCCOc1ccc(-c2ccc(-c3ccc(C(=O)N[C@H]4C[C@@H](O)[C@@H](O)NC(=O)[C@@H]5[C@@H](O)[C@@H](C)CN5C(=O)[C@H]([C@@H](C)O)NC(=O)[C@H]([C@H](O)[C@@H](O)c5ccc(O)cc5)NC(=O)[C@@H]5C[C@@H](O)CN5C(=O)[C@H]([C@@H](C)O)NC4=O)cc3)cc2)cc1 [Anidulafungin, anidulafungin, reference compound] ({pTerphenylCO(4''-OnC5H11)}-[Orn(4R-OH,5R-OH)]T[Hyp][hTyr(3S-OH,4S-OH)]T[Pro(3S-OH,4S-Me)]; lactam 1-C) | – | – | – | – | – | – | −1.68*** log10 CFU/kidneys | 3.09 ± 0.61 log10 CFU/kidneys | – | – | – | MIC ([1]; Candida albicans, ATCC90028, 48 h, 0% mouse serum): 0.03 µg/mL (≈ 0.0263 µM); MIC ([1]; Candida albicans, ATCC90028, 48 h, 50% mouse serum): 0.06 µg/mL (≈ 0.0526 µM); MIC ([2]; Lodderomyces parapsilosis, ATCC90018, 48 h, 0% mouse serum): 2 µg/mL (≈ 1.75 µM); MIC ([2]; Lodderomyces parapsilosis, ATCC90018, 48 h, 50% mouse serum): > 16 µg/mL; MIC ([3]; Aspergillus flavus, ATCC64025, 48 h, 0% mouse serum): < 0.015 µg/mL; MIC ([3]; Aspergillus flavus, ATCC64025, 48 h, 50% mouse serum): 0.03 µg/mL (≈ 0.0263 µM); Difference from 24-hr control [4, 9]: −1.83*** log10 CFU/kidneys; Mean log10 CFU/kidneys (±SD) [4, 9]: 3.37 ± 0.72 log10 CFU/kidneys; Difference from 24-hr control [4, 10]: −0.47 ns log10 CFU/kidneys; Mean log10 CFU/kidneys (±SEM) [4, 10]: 4.41 ± 0.12 log10 CFU/kidneys; Difference from 24-hr control [4, 11]: −2.11*** log10 CFU/kidneys; Mean log10 CFU/kidneys (±SEM) [4, 11]: 2.77 ± 0.20 log10 CFU/kidneys; Difference from 24-hr control [4, 12]: −3.78*** log10 CFU/kidneys; Mean log10 CFU/kidneys (±SEM) [4, 12]: 1.10 ± 0.38 log10 CFU/kidneys
CCCCCOc1ccc(-c2ccc(-c3ccc(C(=O)NC4CC(O)C(OCCOCCOCCOCCOC)NC(=O)C5C(O)C(C)CN5C(=O)C(C(C)O)NC(=O)C(C(O)C(O)c5ccc(O)cc5)NC(=O)C5CC(O)CN5C(=O)C(C(C)O)NC4=O)cc3)cc2)cc1 (centres unmarked) [Compound 5] | 2 µg/mL (≈ 1.5 µM) | 2 µg/mL (≈ 1.5 µM) | >16 µg/mL | >16 µg/mL | 0.125 µg/mL (≈ 0.094 µM) | 0.5 µg/mL (≈ 0.376 µM) | 0.00 ns log10 CFU/kidneys | 4.77 ± 0.06 log10 CFU/kidneys | −1.76*** log10 CFU/kidneys | 3.01 ± 0.41 log10 CFU/kidneys | 1.76 logs | –
